Results: US20080206287A1, “Use of cyclosporin A to sensitize resistant cancer cells to death receptor ligands” (priority 2006, published 2008)

Tested on: PPC-1, OVCAR-3, T47D, MDA-MB-468 and DU 145 cells
Assay: FLIP siRNA knock-down and CH-11 killing
Type: cell-based
Settings: PPC-1 cells transfected with FLIP siRNA
Procedure: Transfection of siRNA oligonucleotides. Double-stranded SMARTPOOL siRNA oligonucleotides targeting c-FLIP mRNA and double-stranded firefly luciferase control siRNA (Dharmacon Research, Lafayette, Colo.) (10 nM) were transfected into cells with Lipofectamine according to the manufacturer's instructions.
To test the functional importance of decreases in FLIP by 5809354, it was determined whether knocking down FLIP could recapitulate the activity of the molecule and abrogate 5809354's ability to sensitize cells to CH-11. PPC-1 cells were transfected with double stranded siRNA that targeted FLIP or luciferase as a control. At 24 hours after transfection, cells were treated with increasing concentrations of 5809354 with or without CH-11.

O=C(CCCOc1ccc(Cl)cc1Cl)NO [compound 5809354, 4-(2,4-dichlorophenoxy)-N-hydroxybutanamide]
enhancement of CH-11-mediated killing in the presence of FLIP siRNA: the longer enhanced CH-11-mediated killing
